Test [1] concerns the target T1, NapW (Streptomyces lusitanus, UniProt S4TKM8).
T1 construct: recombinant in E. coli BL21(DE3), His-tagged, Ni-NTA (pET-28a or pET-37b)
The test is described as follows: HPLC and MS of reduction to […]. The test is classed as biochemical. The following applies: 290 uM ET-743, 1 mM NADPH, Tris-HCl pH 8.0, 30 C, 8 h.

In another test the target is T2, SDR-Pb (Paenibacillus rhizosphaerae, UniProt A0A1R1EZ79).
T2 construct: gene BK138_00365; recombinant in E. coli BL21(DE3), His-tagged
T2 sequence (A0A1R1EZ79 entry or part of it): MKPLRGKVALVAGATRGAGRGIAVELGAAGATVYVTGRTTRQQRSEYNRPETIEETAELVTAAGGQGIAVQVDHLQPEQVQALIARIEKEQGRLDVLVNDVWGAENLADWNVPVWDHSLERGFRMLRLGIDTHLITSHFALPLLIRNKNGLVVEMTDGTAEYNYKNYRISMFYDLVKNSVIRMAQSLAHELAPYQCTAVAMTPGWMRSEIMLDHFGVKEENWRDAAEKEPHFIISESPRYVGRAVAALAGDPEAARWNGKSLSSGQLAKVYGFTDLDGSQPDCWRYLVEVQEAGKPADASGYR
Description: HPLC of reduction to […]. The test is classed as biochemical. The note with it: 290 uM ET-743, 1 mM NADPH, Tris-HCl pH 8.0, 30 C, 8 h.

Test [2] relates to T3, SDR-Rm (Rhizobium mesoamericanum).
T3 construct: recombinant in E. coli BL21(DE3), His-tagged
T3 sequence (Z9SGJ4VC86 1-304): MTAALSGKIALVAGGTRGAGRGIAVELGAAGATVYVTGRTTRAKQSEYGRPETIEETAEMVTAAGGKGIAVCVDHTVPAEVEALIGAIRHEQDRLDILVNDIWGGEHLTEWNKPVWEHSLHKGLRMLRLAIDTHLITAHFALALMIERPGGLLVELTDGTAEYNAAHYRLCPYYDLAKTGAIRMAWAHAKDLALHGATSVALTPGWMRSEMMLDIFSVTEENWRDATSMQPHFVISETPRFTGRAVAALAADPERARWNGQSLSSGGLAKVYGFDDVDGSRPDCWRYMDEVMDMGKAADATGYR
The test is described as follows: HPLC of reduction to […]. In kind it is biochemical. The note with it: […] ET-[…] NADPH, Tris-HCl pH […] C, […] h.

In a further test the target is T4, SDR-Cs (Chlorella sorokiniana, UniProt A0A2P6TRY4).
T4 construct: gene C2E21_4667; recombinant in E. coli BL21(DE3), His-tagged
T4 sequence (A0A2P6TRY4 entry or part of it): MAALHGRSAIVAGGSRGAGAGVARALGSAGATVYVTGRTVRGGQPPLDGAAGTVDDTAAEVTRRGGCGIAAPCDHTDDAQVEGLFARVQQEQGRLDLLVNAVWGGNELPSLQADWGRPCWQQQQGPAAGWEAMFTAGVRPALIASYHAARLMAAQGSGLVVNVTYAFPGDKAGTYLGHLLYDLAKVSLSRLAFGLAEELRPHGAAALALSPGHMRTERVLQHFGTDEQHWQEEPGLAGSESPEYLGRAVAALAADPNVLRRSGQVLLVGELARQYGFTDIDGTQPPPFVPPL
Description: HPLC of reduction to […]. The test is classed as biochemical. The note with it: 290 uM ET-743, 1 mM NADPH, Tris-HCl pH 8.0, 30 C, 8 h.

Another test deals with T5, homO1b (Streptomyces lavendulae, UniProt A0A896A5A8).
T5 sequence (A0A896A5A8 1-308): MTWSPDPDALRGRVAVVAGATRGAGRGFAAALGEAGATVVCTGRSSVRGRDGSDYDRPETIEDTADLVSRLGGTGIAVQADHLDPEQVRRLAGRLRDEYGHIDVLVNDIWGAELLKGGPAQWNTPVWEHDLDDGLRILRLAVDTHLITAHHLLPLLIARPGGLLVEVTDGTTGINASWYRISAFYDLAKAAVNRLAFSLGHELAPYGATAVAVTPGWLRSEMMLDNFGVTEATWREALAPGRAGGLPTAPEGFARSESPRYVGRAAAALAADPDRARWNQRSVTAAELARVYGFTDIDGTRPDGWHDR
The test is described as follows: HPLC and MS of reduction to […]. The test is classed as biochemical. The following applies: […] ET-[…] NADPH, Tris-HCl pH […] C, […] h.

The next test addresses T6, homO1a (Streptomyces lavendulae, UniProt A0A895ZRD1).
T6 sequence (A0A895ZRD1 1-325): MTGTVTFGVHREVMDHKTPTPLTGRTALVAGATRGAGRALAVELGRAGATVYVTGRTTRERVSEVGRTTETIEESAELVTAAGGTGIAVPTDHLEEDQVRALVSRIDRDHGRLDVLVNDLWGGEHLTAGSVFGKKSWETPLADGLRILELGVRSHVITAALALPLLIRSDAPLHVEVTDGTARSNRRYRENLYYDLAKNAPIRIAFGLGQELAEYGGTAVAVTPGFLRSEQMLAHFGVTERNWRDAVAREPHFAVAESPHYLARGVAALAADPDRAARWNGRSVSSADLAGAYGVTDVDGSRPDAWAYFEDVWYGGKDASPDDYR
Description: HPLC and MS of reduction to […]. In kind it is biochemical. The note with it: […] ET-[…] NADPH, Tris-HCl pH […] C, […] h.

In the next test the target is T7, SDR-Mb (Myxococcales bacterium, UniProt A0A1M3NHK2).
T7 construct: recombinant in E. coli BL21(DE3), His-tagged
T7 sequence (A0A1M3NHK2 1-336): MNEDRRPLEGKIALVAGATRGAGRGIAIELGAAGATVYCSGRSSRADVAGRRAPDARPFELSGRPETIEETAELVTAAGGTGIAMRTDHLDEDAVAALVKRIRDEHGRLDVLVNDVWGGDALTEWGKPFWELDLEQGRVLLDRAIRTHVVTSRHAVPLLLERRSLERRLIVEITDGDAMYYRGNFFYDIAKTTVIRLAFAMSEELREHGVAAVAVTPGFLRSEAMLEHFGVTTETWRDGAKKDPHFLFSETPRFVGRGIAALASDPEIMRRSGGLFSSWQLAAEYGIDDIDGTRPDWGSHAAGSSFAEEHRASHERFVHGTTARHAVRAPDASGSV
The test is described as follows: HPLC of reduction to […]. The test is classed as biochemical. The following applies: […] ET-[…] NADPH, Tris-HCl pH […] C, […] h.

The target of a further test is T8, homW (Streptomyces lusitanus, UniProt A0A896A0X3).
T8 sequence (A0A896A0X3 1-304): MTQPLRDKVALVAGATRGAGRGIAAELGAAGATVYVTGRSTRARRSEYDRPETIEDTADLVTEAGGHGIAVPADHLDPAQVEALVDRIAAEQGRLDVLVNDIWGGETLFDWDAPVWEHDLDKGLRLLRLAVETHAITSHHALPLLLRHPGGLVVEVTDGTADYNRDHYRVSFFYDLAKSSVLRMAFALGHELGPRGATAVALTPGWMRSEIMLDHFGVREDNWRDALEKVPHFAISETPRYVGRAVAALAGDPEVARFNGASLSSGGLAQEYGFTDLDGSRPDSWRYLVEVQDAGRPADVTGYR
Description: HPLC and MS of reduction to […]. In kind it is biochemical. The note with it: […] ET-[…] NADPH, Tris-HCl pH […] C, […] h.

Another test deals with SfmO1 (Streptomyces lavendulae, UniProt B0CN12). Description: HPLC and MS of reduction to […]. The test is classed as biochemical. The note with it: 290 uM ET-743, 1 mM NADPH, Tris-HCl pH 8.0, 30 C, 8 h.
Chain of SfmO1 (B0CN12 entry or part of it): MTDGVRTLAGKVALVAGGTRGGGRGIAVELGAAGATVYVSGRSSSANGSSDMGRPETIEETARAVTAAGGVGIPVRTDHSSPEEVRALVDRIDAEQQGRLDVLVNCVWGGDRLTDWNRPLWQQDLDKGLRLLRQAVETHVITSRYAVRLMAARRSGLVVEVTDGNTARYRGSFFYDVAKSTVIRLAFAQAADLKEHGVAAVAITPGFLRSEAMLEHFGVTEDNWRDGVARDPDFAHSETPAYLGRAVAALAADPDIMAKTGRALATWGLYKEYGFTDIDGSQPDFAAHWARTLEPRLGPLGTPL
Another test concerns the target T9, SfmC (Streptomyces lavendulae, UniProt B0CN27).
T9 construct: NRPS
Description: MS of dual Pictet-Spengler product […]. The test is classed as biochemical. The note with it: 1 mM substrate, 0.5 mM myristoyl-Ala-glycinaldehyde, 1 mM ATP, MgCl2, MnCl2, NADH, HEPES pH 7.0, 30 C, 2 h.

In test [3] the target is T1, NapW. The test is described as follows: X-ray crystal structure (co-crystallisation). The following applies: co-crystallised with 5 mM NADPH; modelled as NADP+; Rossmann fold site. The test is classed as binding.

T1 sequence (S4TKM8 entry or part of it): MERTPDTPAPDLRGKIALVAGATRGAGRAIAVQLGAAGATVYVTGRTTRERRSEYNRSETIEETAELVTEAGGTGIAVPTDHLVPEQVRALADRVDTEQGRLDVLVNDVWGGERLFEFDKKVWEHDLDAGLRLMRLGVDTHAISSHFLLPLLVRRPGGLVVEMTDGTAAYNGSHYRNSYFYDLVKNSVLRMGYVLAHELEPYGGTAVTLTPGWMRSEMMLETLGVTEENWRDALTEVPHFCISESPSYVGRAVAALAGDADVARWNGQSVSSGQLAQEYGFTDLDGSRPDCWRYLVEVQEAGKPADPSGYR
T9 sequence (B0CN27 entry or part of it): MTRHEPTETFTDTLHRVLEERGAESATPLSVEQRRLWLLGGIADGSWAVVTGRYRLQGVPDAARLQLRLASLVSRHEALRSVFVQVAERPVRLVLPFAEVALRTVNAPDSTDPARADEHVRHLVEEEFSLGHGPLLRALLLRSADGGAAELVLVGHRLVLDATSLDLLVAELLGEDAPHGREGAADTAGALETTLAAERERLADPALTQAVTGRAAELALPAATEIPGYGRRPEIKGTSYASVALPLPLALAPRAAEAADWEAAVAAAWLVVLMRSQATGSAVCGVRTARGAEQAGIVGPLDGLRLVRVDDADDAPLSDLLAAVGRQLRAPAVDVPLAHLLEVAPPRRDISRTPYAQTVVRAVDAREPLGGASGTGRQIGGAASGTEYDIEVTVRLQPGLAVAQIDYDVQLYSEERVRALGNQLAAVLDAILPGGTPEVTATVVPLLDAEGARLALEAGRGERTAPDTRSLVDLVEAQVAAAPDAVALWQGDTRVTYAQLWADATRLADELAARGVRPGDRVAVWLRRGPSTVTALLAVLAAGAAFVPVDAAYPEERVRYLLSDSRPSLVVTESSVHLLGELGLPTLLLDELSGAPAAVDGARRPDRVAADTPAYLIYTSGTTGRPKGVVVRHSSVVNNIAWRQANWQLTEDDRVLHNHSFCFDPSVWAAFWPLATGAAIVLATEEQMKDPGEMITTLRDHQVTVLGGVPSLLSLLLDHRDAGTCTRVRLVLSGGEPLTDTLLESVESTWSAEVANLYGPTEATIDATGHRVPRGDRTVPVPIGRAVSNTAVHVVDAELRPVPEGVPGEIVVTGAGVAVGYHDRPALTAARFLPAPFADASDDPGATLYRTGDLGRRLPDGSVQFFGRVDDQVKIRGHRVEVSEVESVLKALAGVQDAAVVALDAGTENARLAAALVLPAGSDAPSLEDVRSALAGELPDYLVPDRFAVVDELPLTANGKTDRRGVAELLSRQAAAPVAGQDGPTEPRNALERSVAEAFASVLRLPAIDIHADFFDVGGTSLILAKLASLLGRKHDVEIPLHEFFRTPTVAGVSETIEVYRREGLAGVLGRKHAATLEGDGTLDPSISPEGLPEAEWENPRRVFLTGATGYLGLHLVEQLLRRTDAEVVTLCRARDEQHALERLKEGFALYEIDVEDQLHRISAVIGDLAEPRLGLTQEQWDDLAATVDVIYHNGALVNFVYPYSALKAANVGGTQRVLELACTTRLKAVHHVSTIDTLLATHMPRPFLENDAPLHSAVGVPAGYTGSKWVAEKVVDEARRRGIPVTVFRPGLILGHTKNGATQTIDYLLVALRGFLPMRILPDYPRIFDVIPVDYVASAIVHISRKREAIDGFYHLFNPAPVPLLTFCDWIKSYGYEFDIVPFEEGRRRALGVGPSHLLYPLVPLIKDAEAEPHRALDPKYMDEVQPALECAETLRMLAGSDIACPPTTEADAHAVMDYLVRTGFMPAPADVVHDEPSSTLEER

On to `COc1cc2c(cc1O)CCN[C@]21CS[C@@H]2c3c(OC(C)=O)c(C)c4c(c3[C@H](COC1=O)N1[C@@H]2[C@H]2c3c(cc(C)c(OC)c3O)C[C@@H]([C@@H]1O)N2C)OCO4` [compound 7, ET-743], for which the “HPLC and MS of reduction to 8” value at NapW [1], at homO1b, on homO1a, at homW and on SfmO1 was “each of the five SDRs originated from NDM or SFM-A producer could effectively catalyze” in each case. Moreover, the “HPLC of reduction to 8” value at SDR-Pb was “most proteins can catalyze reductive reaction of THIQ compounds except that SDR-Li and SDR-Ss”; in test [2] it was “most proteins can catalyze reductive reaction of THIQ compounds except that SDR-Li and SDR-Ss”; on SDR-Cs, “most proteins can catalyze reductive reaction of THIQ compounds except that SDR-Li and SDR-Ss”; on SDR-Mb it was “most proteins can catalyze reductive reaction of THIQ compounds except that SDR-Li and SDR-Ss”.
Consider `COc1c(C)cc(C[C@H](N)C(=O)O)cc1O` [3-OH-5-Me-O-Me-Tyr], for which the “MS of dual Pictet-Spengler product 16” value at SfmC was “Dual Pictet-Spengler reactions catalyzed SfmC”.
With `NC(=O)c1ccc[n+]([C@@H]2O[C@H](COP(=O)(O)OP(=O)(O)OC[C@H]3O[C@@H](n4cnc5c(N)ncnc54)[C@H](OP(=O)(O)O)[C@@H]3O)[C@@H](O)[C@H]2O)c1` [NADP^+], the “X-ray crystal structure (co-crystallisation)” value on NapW [3] was “We further obtained the structure of NapW·NADP^+ binary complex by co-crystallizing NapW, NADP(H)”.

The record behind these values is publication PMC8648761, “Reductive inactivation of the hemiaminal pharmacophore for resistance against tetrahydroisoquinoline antibiotics” (Nature Communications, 2021).
